# “Also recorded” adds a separate entry of the source.
# Legend:
# Format in all cases: in vivo
# [1] = tested on: Acyrthosiphon pisum aphids; assay: Aphid developmental stage monitoring
# Protocol: (§1) In addition, the developmental stage (1st, 2nd, 3rd, 4th, 5th instar) was determined daily throughout the experiment. Once an aphid reached the 4th instar stage, they were given their own artificial feeding system in a deep petri dish so that fecundity could be monitored once they reached adulthood.
# (§2) Each treatment group received approximately the same number of individuals from each of the collection plant. For each treatment, 20 aphids were placed onto each leaf. Aphids were monitored daily for survival and dead aphids were removed when they were discovered. In addition, the developmental stage (1st, 2nd, 3rd, 4th, 5th instar, and 5R, representing a reproducing 5th instar) was determined daily throughout the experiment. Pictures of aphids were taken throughout the experiment to evaluate size differences between treatment groups.
# (Vroma vicia faba from Johnny's Selected Seeds) in a climate-controlled incubator (16 h light/8 h dark photoperiod; 60±5% RH; 25±2° C.). Prior to being used for aphid rearing, fava bean plants were grown in potting soil at 24° C. with 16 h of light and 8 h of darkness. To limit maternal effects or health differences between plants, 5-10 adults from different plants were distributed among 10 two-week-old plants, and allowed to multiply to high density for 5-7 days. […] Aphids were monitored daily for survival and dead aphids were removed from the deep petri dish when they were discovered. In addition, the developmental stage (1st, 2nd, 3rd, 4th, 5th and 5R (5th that has reproduced) instar) was determined daily throughout the experiment.
# In addition, the developmental stage (1st, 2nd, 3rd, 4th, 5th, and 5R (5th that has reproduced) instar) was determined daily throughout the experiment.
# In addition, the developmental stage (1st, 2nd, 3rd, 4th, 5th, and 5R (5th instar aphids that are reproducing) instar) was determined daily throughout the experiment.
# In addition, the developmental stage (1st, 2nd, 3rd, 4th, and 5th instar) was determined daily throughout the experiment.
# as §1, with “5th, and 5R (5th that has reproduced)” for “5th”
# For each treatment, 30 aphids were placed onto each leaf in triplicate. […] Aphids were monitored daily for survival and dead aphids were removed from the deep petri dish when they were discovered. In addition, the developmental stage (1st, 2nd, 3rd, 4th, 5th, and 5R (5th instar aphids that are reproducing) instar) was determined daily throughout the experiment. […]
# [2] = tested on: Acyrthosiphon pisum aphids; assay: Aphid fecundity (offspring production); conditions: 10 or 100 uM pantothenol
# Protocol: as §1
# (§3) For adult aphids, new nymphs were counted daily and then discarded. At the end of the experiments, fecundity was determined as the mean number of offspring produced daily once the aphid reached adulthood. Pictures of aphids were taken throughout the experiment to evaluate size differences between treatment groups.
# as §1, with “5th, and 5R (5th that has reproduced)” for “5th”
# (§4) For adult aphids, new nymphs were counted daily and then discarded. At the end of the experiments, fecundity was measured in two ways: 1) the mean day at which the first offspring for the treatment group was determined and 2) the mean number of offspring produced daily once the aphid reached adulthood. […]
# In addition, the developmental stage (1st, 2nd, 3rd, 4th, 5th instar) was determined daily throughout the experiment. […]
# [3] = tested on: Acyrthosiphon pisum aphids; assay: Aphid body area (size) measurement; conditions: 10 or 100 uM pantothenol, through plants; by 3 days post-treatment
# Protocol: as §3
# as §2, with “Pictures of aphids were taken throughout the experiment to evaluate size differences between treatment groups.” left out
# as §4
# Aphids LSR-1 (which harbor only Buchnera), Acyrthosiphon pisum were grown on fava bean plants (Vroma vicia faba from Johnny's Selected Seeds) in a climate-controlled incubator (16 h light/8 h dark photoperiod; 60±5% RH; 25±2° C.). […] Aphids were monitored daily for survival and dead aphids were removed from the deep petri dish when they were discovered. […]
structure (smiles),measurement,setting,value
CC(C)(CO)[C@@H](O)C(=O)NCCCO [pantothenol],Aphid development,"[1]; eNASCO 1st and 2nd instar, 10 or 100 uM pantothenol in artificial diet without essential amino acids, through plants",delayed aphid development; also recorded: Development was delayed
same,Aphid development,"[1]; eNASCO first instar, leaf coating, 100 μl of 10 uM pantothenol in 0.025% Silwet L-77",did not affect aphid development; also recorded: matured at similar rates up to two days post-treatment
same,Aphid reproduction,[2],loss of reproduction
same,Aphid area (body size),[3],drastic effect of pantothenol treatment; also recorded: smaller in area than untreated controls
